How the values were obtained:
Bacillus subtilis = experiment: Soil competition (soil bacteria-enrichment) assay, qPCR with strain-specific probes; type: cell-based; conditions: 1 g non-sterile agriculture soil, 300 μL exudates, 20 mM target carbon substrate, four species pooled, 72 hours, qPCR (FIG. 23)
Protocol: (§1) In some embodiments, the competition assay comprises adding one or more bacteria of interest to non-sterile agriculture soil at an equal starting OD and incubating the soil with plant root exudate and a desired concentration of candidate soil-bacteria enriching agent. In some embodiments, the non-sterile agriculture soil further comprises one or more plants. Methods of obtaining plant root exudate are known in the art. All such methods are suitable for use in the methods disclosed herein. For example, in some embodiments, plant root exudate is obtained by surface sterilizing Arabidopsis thaliana seeds, sowing the seeds on an agar plate and growing the seeds for 7 days. In some embodiments, after 7 days, the seedlings are transferred to a multi-well plate for exudate collection. In some embodiments, exudate collection comprises adding MS media to each well of the multi-well well plate along with about 50, 7-day old, Arabidopsis seedlings. The seedlings are then incubated with shaking in growth chamber for about 24 hours. After 24 hours, the exudates are collected, pooled, and filter sterilized. In some embodiments, the treated non-sterile agriculture soil is incubated with plant root exudate and a desired concentration of soil bacteria-enriching agent for about 3 days. After 3 days, DNA is extracted from soil and the concentration of the bacteria in the soil is measured. For example, in some embodiments, qPCR analysis is conducted using a universal bacteria primer “ALL” and species-specific primers. The threshold cycle (Ct) value for the universal primer is then subtracted from each of the species-specific primers to get the dCt or ΔCt.
(§2) The ability of the identified compounds to effectively manipulate the soil microbial community was examined using a series of soil bacteria-enrichment experiments. First, the ability of the candidate selective carbon substrates to influence microbial competition was tested using a series of soil competition experiments. 1 g of non-sterile agriculture soil was added to a 2 mL tube along with 300 μL of exudates, 20 mM target carbon substrates and an OD 3.33 of all four species pooled at an equal starting concentration. Tubes were collected after 72 hours and stored in −80° C. before processing. DNA was then extracted and screened using qPCR with probes unique to each strain to determine the abundance of each strain in the mixed community.

Pseudomonas putida [1] = experiment: as above; type: cell-based; conditions: 1 g non-sterile agriculture soil, 300 μL exudates, 20 mM target carbon substrate, four species pooled, 72 hours, qPCR (FIG. 24)
Protocol: as §1, §2

Pseudomonas putida [2] = experiment: Persistence of P. putida bioinoculant in non-sterile soil over time (qPCR, ΔCt); type: cell-based; conditions: initial density 10^5 cfu/g soil, exudate solution +/- 20 mM PEA, 28° C., sampled every 3 days, qPCR ΔCt (FIG. 25-26)
Protocol: FIG. 25-26 are graphs showing persistence of a P. putida bioinoculant over time. […] Lower ΔCt indicates higher abundance. P. putida was introduced into non-sterile soil at an initial density of 10^5 cfu/g soil in exudate solution +/−20 mM phenylethylamine (PEA) at day 0 and allowed to incubate at 28° C. Two replicates are shown for each condition. Every 3 days, soil was collected, and DNA was extracted to probe the concentration of P. putida using 16S primers. Template DNA for qPCR was normalized to ˜1 ng/reaction.

P. putida KT2440 (PP) = experiment: Enrichment of bioinoculant in soil in the presence of plants (bulk soil and root qPCR); type: in vivo, Pseudomonas putida; Arabidopsis thaliana seedlings; conditions: agriculture soil in magenta box, +/- 20 mM phenylethylamine, 10^5 cells per gram of soil, four Arabidopsis seedlings, 1 or 2 weeks
From the text: Some embodiments herein are directed to a method of assessing whether a given soil bacteria-enriching agent enriches a specific species of bacteria in a soil microbiome comprising at least one additional bacterial species when one or more plants are being supported by the soil. In some embodiments, the method comprises adding a known concentration of one or more species of bacteria to soil along with a soil bacteria-enriching agent. In some embodiments, the bacteria comprise Pseudomonas putida (PP), Azotobacter vinelandii (AV), Bacillus subtilis (BS), and/or Azospirillum brasilense (AB). In some embodiments, soil moisture at the start of the experiment is adjusted a desired level for growth of the plant. One or more plants are then planted in the treated soil and allowed to grow for about 1, 2, 3, 4, 5, 6, 7, 8, 9, 10, 11, 12, 13, 14, 15, 16, 17, 18, 19, 20, 21, 22, 23, 24, 25, 26, 27, 28, 29, 30, or 31 days or more, or for an amount of time that is in a range that is defined by any two of the preceding values. […] The quantity of one or more species of bacteria in the soil and/or the plant roots is then determined and one or more soil bacteria-enriching agents that uniquely promote the growth and attraction of a desired bacterial species as compared to one or more other bacteria in the soil microbiome are identified. […]

Azospirillum brasilense = experiment: Soil competition (soil bacteria-enrichment) assay, qPCR with strain-specific probes; type: cell-based; conditions: 1 g non-sterile agriculture soil, 300 μL exudates, 20 mM target carbon substrate, four species pooled, 72 hours, qPCR (FIG. 21)
Protocol: as §1, §2

SMILES | enrichment of Bacillus subtilis in agricultural soils with a native microbiome (Bacillus subtilis) | enrichment of Pseudomonas putida in agricultural soils with native microbiome (Pseudomonas putida [1]) | further results
COC1OC(CO)C(O)C(O)C1O [α-methyl d-galactoside, a-Methyl-D-Galactoside] | can be used to enrich Bacillus subtilis | – | –
CCCCCCCCCC(=O)O [capric acid, Capric acid] | – | can be used to enrich Pseudomonas putida | –
OC[C@H]1O[C@@H](Oc2ccc(O)cc2)[C@H](O)[C@@H](O)[C@@H]1O [arbutin, Arbutin] | can be used to enrich Bacillus subtilis | – | –
NCCc1ccccc1 [phenylethylamine, Phenylethylamine] | – | can be used to enrich Pseudomonas putida | persistence of Pseudomonas putida in agricultural soil (Pseudomonas putida [2]): persists longer; enrichment of PP in the bulk soil (P. putida KT2440 (PP); qPCR (FIG. 27)): enriched; enrichment of PP on plant root (root colonization) (P. putida KT2440 (PP); root DNA qPCR (FIG. 28)): enriched
CCC(=O)[O-].[Na+] [sodium propionate] | – | – | enrichment of Azospirillum brasilense in agricultural soils with a native microbiome (Azospirillum brasilense): can be used to enrich Azospirillum brasilense

Reference: patent publication US20250187998A1, “IDENTIFICATION OF SOIL BACTERIA-ENRICHING AGENTS AND METHODS OF USE THEREOF” (California Institute of Technology, priority 2023, published 2025)
